Values after ≈ are worked out from the molar mass of the structure shown. “Also recorded” adds a separate entry of the source. Non-standard residues stand in square brackets, D forms with d. Residues, ends and D or L forms follow the SMILES beside them. Aib = CC(C)(N)C(=O)O
Key:
[1] = test system: A. baumannii YQ4 biofilm; assay: static biofilm inhibition, crystal violet; assay type: cell-based, Acinetobacter baumannii; conditions: 48 h
Procedure: Static biofilm inhibition was performed as described previously (Gaddy and Actis, [2009]). Briefly, the log-phase culture of A. baumannii YQ4 was prepared as described above. About 200 μl of culture was seeded in each cell of the 96-well PVC plate with OD600 of 0.01 (ca. 1 × 10^6 CFU/ml), which was exposed to different COG1410 solutions with the final concentrations ranging from 0.5 to 128 μg/ml. Each concentration was determined in eight wells. After incubation at 37°C for 48 h, the planktonic bacteria were removed by washing three times with sterilized water, followed by fixing in methanol for 15 min and staining with 0.1% crystal violet (CV) for 15 min. Excess CV was washed off, and the bound CV was eluted from the biofilm into 150 μl of 95% ethanol and quantitated spectrophotometrically at 600 nm using a Biotek Synergy H1 plate reader. The experiments were performed in triplicate.

[2] = stability in human plasma, disk diffusion read-out; conditions: 100% human plasma, 10 mg/ml, 37°C, first 2 h; disk diffusion on A. baumannii YQ4, three independent experiments
Procedure: In order to determine the stability in human plasma, COG1410 was dissolved in1 ml of 100 % human plasma with the final concentration of 10 mg/ml and incubated at 37°C without shaking. Aliquots of 100 μl were taken at 0, 1, 2, 4, 6, 8, and 10 h. The log-phase culture of A. baumannii YQ4 was prepared as described above. About 200 μl of culture was mixed with 6 ml of 0.8% soft agar to make a two-layered plate. After air drying for 30 min, four 6-mm paper disks were placed on the top, and 6-μl aliquots of COG1410 at different time points were dropped on the paper disks. After 18 h of incubation at 37°C, the inhibition zones were recorded by a digital camera, and the inhibition diameters were measured by image J. Three independent experiments were performed.
About 10 mg/ml of COG1410 was incubated with 100% human plasma at 37°C and sampled at different time points. The stability of COG1410 was determined by evaluating the antibacterial activity against PDR A. baumannii YQ4 through the disk diffusion assay. The diameters of inhibition were measured. Three independent experiments were performed and data were represented as mean ± SD. The statistical significance between initial and different points was analyzed by Student's t-test. ^* indicated p < 0.05; ^*** indicated p < 0.001. Click here for additional data file.

[3] = test system: MDR Pseudomonas aeruginosa 14–61; conditions: microdilution method in the corresponding broth
[4] = test system: Bacillus subtilis 168
[5] = test system: Escherichia coli ATCC25922
[6] = test system: A. baumannii; conditions: 1× MIC, PBS, 2 h
[7] = test system: A. baumannii ATCC19606 and two LPS-modified strains, pmrA^P102R and pmrA^P102RmiaA^I221V; assay: MIC against LPS-modified strains; assay type: cell-based, Acinetobacter baumannii; conditions: MIC in LB broth, wild type versus mutants
Procedure: The growth curve was measured in duplicate, with eight wells for each treatment in a 96-well plate each time. […] Experiments were conducted in triplicate. Data indicated mean ± SD values.

[8] = test system: EBSL-producing Proteusbacillus vulgaris YQ19; conditions: microdilution method in the corresponding broth
[9] = test system: A. baumannii YQ4; assay: dynamic time-kill assay in PBS
[10] = test system: A. baumannii YQ4 intracellular ROS; assay: ROS detection, DCFH-DA probe; assay type: cell-based, Acinetobacter baumannii; conditions: 16 μg/ml
Procedure: The intracellular ROS level was determined by the Reactive Oxygen Species Assay Kit of Beyotime Biotechnology (S0033S), according to the manufacturer's instructions. The log-phase culture of A. baumannii YQ4 was harvested and washed in PBS, and then diluted 10 times, approximately 10^7 CFU/ml. In total, 1 μl of DCFH-DA (10 μM) was added to 1 ml of cell culture and incubated at 37°C for 20 min. Then the fluorescence probe was fully removed by washing with PBS three times and resuspending in PBS, followed by the addition of COG1410 (16 μg/ml) or water. Rosup (50 μg/ml) was positive control in the kit. The culture was incubated at 37°C for 30 min. The fluorescence intensity was measured by a plate reader at an excitation wavelength of 488 nm and an emission wavelength of 525 nm. The experiment was performed in duplicate.

[11] = test system: A. baumannii YQ4; assay: Live/Dead BacLight SYTO-9/PI staining, confocal microscopy; assay type: cell-based, Acinetobacter baumannii; conditions: 1× MIC COG1410 (16 μg/ml) or 5× MIC polymyxin B (80 μg/ml), 37°C, 30 min
Procedure: The damage to the cytoplasmic membrane was determined as described previously (Farkas et al., [2017]), with the Live/Dead BacLight bacterial viability kit (Invitrogen L7012). The log-phase culture of A. baumannii YQ4 was washed two times and suspended in PBS with the final OD600 of 0.1. […] Then, the cells were stained with 7.5 μM SYTO-9 and 30 μM propidium iodide (PI) in dark for 15 min. In total, 5 μl of culture was spotted on a clean slide coated with a thin layer of 1% agarose. The fluorescence was observed by Olympus FV3000 confocal laser scanning microscope. For SYTO-9, the excitation and emission were 483 and 503 nm, respectively. For PI, the excitation and emission were 493 and 636 nm, respectively.

[12] = test system: vancomycin-resistant Enterococcus faecalis 11–34; conditions: vancomycin-resistant 11–34
[13] = test system: A. baumannii YQ4 preformed biofilm; assay: biofilm eradication assay, crystal violet; assay type: cell-based, Acinetobacter baumannii; conditions: 48 h preformed biofilm, 24 h treatment
Procedure: Biofilm eradication assay was performed as described previously (Mwangi et al., [2019]). A. baumannii YQ4 culture of log phase was diluted in fresh LB broth to OD600 0.01 and dispensed to a 96-well PVC plate with 200 μl per well. Plates were incubated at 37°C for 48 h and washed with PBS three times. Serial dilutions of COG1410 (0.5–128 μg/ml) were prepared using the same media, and 200 μl were dispensed into each well. Each concentration was determined in eight wells. LB without COG1410 was used as untreated control. After incubation for another 24 h, the remaining biofilm was quantified as described above. The experiments were performed in triplicate.

[14] = test system: methicillin-resistant Staphylococcus aureus 14–55; conditions: microdilution method in the corresponding broth
[15] = test system: panel of Gram-positive and Gram-negative strains; assay: MIC on a panel of strains; assay type: cell-based; conditions: Streptococcus pneumoniae, methicillin-sensitive S. aureus, MRSA, Klebsiella pneumoniae, Pseudomonas aeruginosa
Procedure: Strain stocks were maintained at −80°C in 10% glycerol. Bacteria were streaked on fresh plates before each experiment. Most of them were cultured in LB broth containing 10 g/L NaCl at 37°C, except for Mycobacteria in 7H9 broth and Enterococcus in BHI broth. Porphyromonas gingivalis was cultured in BHI broth supplemented with 1 μg/ml vitamin k1, 5 μg/ml hemin, and 5 mg/ml L-cysteine hydrochloride at 37°C in the anaerobic chamber. The minimal inhibitory concentrations (MICs) of antimicrobials were determined using the microdilution method in the corresponding broth.
The antimicrobial activity of COG1410 was determined by measuring the minimal inhibition concentration (MIC) values on a panel of Gram-positive and Gram-negative strains (Table 1).

[16] = test system: MDR Enterobacter cloacae 7–86; conditions: microdilution method in the corresponding broth
[17] = cytotoxicity assay, Cell Counting Kit 8; conditions: human, L02 cells (human hepatic, normal liver cell)
Procedure: Briefly, 100 μl of human hepatic L02 cells was seeded in the 96-well plate with 4 × 10^3 per well in RPMI-1640 medium containing 20% FBS and incubated at 37°C in a 5% CO2 atmosphere for 24 h. The cells without exposure to peptides were used as a negative control. Then, the L02 cells were incubated with different concentrations of COG1410 for another 24 h. Then, 10 μl of CCK8 solution was added to each well. After 2 h of incubation, the optical absorbance at 450 nm was measured with a BioTek synergy H1 plate reader. […] The experiments were done in triplicate.

[18] = test system: Caenorhabditis elegans (Bristol N2) infected with A. baumannii YQ4; assay: nematode killing assay, C. elegans infection model; conditions: 16 μg/ml COG1410 in NGM plate, versus untreated group
[19] = test system: MDR Streptococcus pneumoniae 10–58; conditions: microdilution method in the corresponding broth
[20] = test system: PDR Klebsiella pneumoniae 84; conditions: microdilution method in the corresponding broth
[21] = test system: MDR Serratia mucosa YQ15; conditions: microdilution method in the corresponding broth
[22] = test system: EBSL-producing Klebsiella pneumoniae YQ7; conditions: microdilution method in the corresponding broth

In the case of `CC(=O)N[C@@H](C)C(=O)N[C@@H](CO)C(=O)NC(C)(C)C(=O)N[C@@H](CC(C)C)C(=O)N[C@@H](CCCNC(=N)N)C(=O)N[C@@H](CCCCN)C(=O)N[C@@H](CC(C)C)C(=O)NC(C)(C)C(=O)N[C@@H](CCCCN)C(=O)N[C@@H](CCCNC(=N)N)C(=O)N[C@@H](CC(C)C)C(=O)N[C@@H](CC(C)C)C(N)=O` [COG1410, acetyl-AS-Aib-LRKL-Aib-KRLL-amide] (Ac-AS[Aib]LRKL[Aib]KRLL-NH2), the “biofilm formation, in words” value ([1]; 1/2 MIC, crystal violet) is reported as “significantly reduced biofilm formation”, the “reduction of biofilm mass” value ([1]; 1× MIC, 37°C, crystal violet OD600, versus untreated control) is reported as 55% and the “change of inhibition diameter / degradation” value [2] is reported as “did not significantly change; also recorded: does not seem to be significantly degraded”. For the same molecule, the MIC [3] was over 256 µg/mL, the MIC [4] was 1 µg/mL (≈ 0.71 µM) and the MIC [5] was 64 µg/mL (≈ 45.4 µM). For the same molecule, the “A. baumannii population killed, in words” value [6] was “almost complete elimination”, the “effect of lipid A modification of LPS on antimicrobial efficacy” value [7] was “did not change the antimicrobial efficacy” and the MIC [8] was over 256 µg/mL. For the same molecule, the “elimination of the inoculum” value ([9]; 5 × MIC (80 μg/ml), within 5 min, PBS, inoculum 1 × 10^8 CFU/ml) was “completely eliminated”, the “time to eliminate large inocula” value ([9]; inocula 10^8 CFU/ml) was at most 30 min and the “ROS production, in words” value ([10]; 37°C, Figure 3D) was “significantly lead to more ROS production”. For the same molecule, the “more ROS detected by DCFH-DA probe” value ([10]; treatment for 20 min as printed) was 30%, the “SYTO-9/PI staining of treated cells” value [11] was “red fluorescence” and the MIC [12] was 32 µg/mL (≈ 22.7 µM). The mature biofilm dispersed ([13]; 1× MIC) was “approximately 46%”, the biofilm eradicated ([13]; 4 × MIC) was “more than 88%” and the MIC [14] was over 256 µg/mL. For the same molecule, the “antimicrobial activity in words” value [15] was “inactive”, the MIC [16] was 64 µg/mL (≈ 45.4 µM) and the EC50 at 24 h [17] was 58.9 µg/mL (≈ 41.8 µM). For the same molecule, the “survival of infected nematodes” value [18] was “alleviated the death of infected nematodes but not statistically significantly”, the MIC [19] was over 256 µg/mL and the MIC [20] was over 256 µg/mL. For the same molecule, the MIC [21] was over 256 µg/mL and the MIC [22] was over 256 µg/mL.

From article PMC9445589, “Apolipoprotein E mimetic peptide COG1410 combats pandrug-resistant Acinetobacter baumannii” (Frontiers in Microbiology, 2022)
